Assay results from ChEMBL document CHEMBL5380842, “Discovery of a Potent and Selective CCR8 Small Molecular Antagonist IPG7236 for the Treatment of Cancer” (J Med Chem, 2023).
Values after ≈ are worked out from the molar mass of the structure shown.

How the values were obtained:
[1] = Solubility of compound in PBS at pH 7.4 incubated for 2 hrs by LC-MS/MS analysis; type: physicochemical
[2] = Apparent permeability of compound across apical to basal side in human Caco2 cells at 10 uM incubated for 120 mins by LC-MS/MS analysis; details: Caco-2
[3] = Apparent permeability of compound across basal to apical side in human Caco2 cells at 10 uM incubated for 120 mins by LC-MS/MS analysis; details: Caco-2
[4] = molecular target: C-C chemokine receptor type 8 (Homo sapiens, UniProt P51685); assay: Antagonist activity against CCR8 (unknown origin) expressed in CHO-K1 cells preincubated for 1 hr followed by CCL1 addition measured after 24 hrs by ONE-Glo assay; type: cell-based
[5] = Efflux ratio of apparent permeability across basolateral to apical side over apical to basolateral side in human Caco-2 cells at 10 uM incubated for 120 mins by LC-MS/MS analysis

Sequence of C-C chemokine receptor type 8 (P51685 whole entry): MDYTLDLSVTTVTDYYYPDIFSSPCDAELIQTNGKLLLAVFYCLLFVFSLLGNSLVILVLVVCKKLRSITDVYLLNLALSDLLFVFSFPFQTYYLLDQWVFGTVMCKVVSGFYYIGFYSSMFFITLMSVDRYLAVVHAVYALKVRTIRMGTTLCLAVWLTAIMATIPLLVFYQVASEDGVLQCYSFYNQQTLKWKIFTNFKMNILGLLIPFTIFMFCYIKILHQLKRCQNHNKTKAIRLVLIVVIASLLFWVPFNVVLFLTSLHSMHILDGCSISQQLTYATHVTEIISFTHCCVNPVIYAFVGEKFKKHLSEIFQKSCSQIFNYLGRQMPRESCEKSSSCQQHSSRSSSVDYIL

Structure (SMILES) | solubility at 2 h [1] [µM] | Papp A→B at 2 h, 10 µM [2] [×10⁻⁶ cm/s] | Papp B→A at 2 h, 10 µM [3] [×10⁻⁶ cm/s] | IC50 [4] [nM] | efflux ratio at 2 h, 10 µM [5]
Cc1ccccc1C(=O)Nc1ccc(S(=O)(=O)N[C@H](C)C2CCN(C)CC2)cc1Cl | 233 (≈ 105 µg/mL) | 0.7 | 25.9 | – | –
Cc1ccccc1C(=O)Nc1ccc(S(=O)(=O)Nc2cccc3c2N(CCN(C)C)C(=O)CO3)c2ccccc12 | – | – | – | > 1000 | –
CCCN1CCN(c2ccc(C)c(NS(=O)(=O)c3ccc(NC(=O)c4ccccc4C)c4ccccc34)c2)CC1 | – | – | – | > 1000 | –
Cc1ccccc1C(=O)Nc1ccc(S(=O)(=O)N[C@H](C)C23CCN(CC2)CC3)c2ccccc12 | – | – | – | 303 | –
Cc1cc(S(=O)(=O)N[C@H](C)C2CCN(C)CC2)ccc1NC(=O)C1CCCCCC1 | – | 2 | 17.7 | 28 | 8.9
CCCN1CCN(c2ccc(OC)c(NS(=O)(=O)c3ccc(NC(=O)c4ccccc4C)c4ccccc34)c2)CC1 | – | – | – | > 1000 | –
Cc1cc(S(=O)(=O)N[C@H](C)C2CCN(C)CC2)c(F)cc1NC(=O)c1ccccc1C | – | 2.2 | 19.8 | 6 | 9
Cc1cc(S(=O)(=O)N[C@H](C)C2CCN(C)CC2)ccc1NC(=O)c1ccc(Cl)cc1C | – | 1.1 | 19.4 | 1.7 | 17.6
Cc1ccccc1C(=O)Nc1c(C)cc(S(=O)(=O)N[C@H](C)C2CCN(C)CC2)cc1Cl | 247 (≈ 115 µg/mL) | 1.1 | 19.5 | – | 17.7
CCc1cc(S(=O)(=O)N[C@H](C)C2CCN(C)CC2)ccc1NC(=O)c1ccccc1C | – | 1.5 | 25.9 | – | –
CCCC(=O)N1CCCC(C(=O)NS(=O)(=O)c2ccc(NC(=O)c3ccccc3C)c3ccccc23)C1 (stereo not given) | – | – | – | > 1000 | –
Cc1cc(S(=O)(=O)N[C@H](C)C2CCN(C)CC2)ccc1NC(=O)c1ccsc1C | – | 1.5 | 25.9 | – | –
Cc1ccccc1C(=O)Nc1ccc(S(=O)(=O)N[C@H](C)C2CCN(C)CC2)cc1C#N | – | 0.2 | 2.7 | 33 | 13.5
COCCN1CCC([C@@H](C)NS(=O)(=O)c2ccc(NC(=O)c3ccccc3C)c(C)c2)CC1 | – | – | – | 79 | –
CCCN1CCCN(c2cc(NS(=O)(=O)c3ccc(NC(=O)c4ccccc4C)c4ccccc34)ccc2OC)CC1 | – | – | – | > 1000 | –
CCCC(=O)N1CCCC(CNS(=O)(=O)c2ccc(NC(=O)c3ccccc3C)c3ccccc23)C1 (stereo not given) | – | – | – | > 1000 | –
CCCN1CCN(c2cccc(NS(=O)(=O)c3ccc(NC(=O)c4ccccc4C)c4ccccc34)c2C)CC1 | – | – | – | > 1000 | –
Cc1ccccc1C(=O)Nc1ccc(S(=O)(=O)NC2CCN(C(=O)N3CCN(C)CC3)CC2)c2ccccc12 | – | – | – | 4 | –
CCCN1CCC([C@@H](C)NS(=O)(=O)c2ccc(NC(=O)c3ccccc3C)c(C)c2)CC1 | – | 2.2 | 30.4 | – | –
COC(=O)CN1CCC([C@@H](C)NS(=O)(=O)c2ccc(NC(=O)c3ccccc3C)c(C)c2)CC1 | – | – | – | 129 | –
Cc1cc(S(=O)(=O)N[C@H](C)C2CCN(C)CC2)c(Cl)cc1NC(=O)c1ccccc1C | – | 2 | 25.5 | – | –
Cc1ccccc1C(=O)Nc1ccc(S(=O)(=O)NC(C)C2CCCCN2)c2ccccc12 (stereo not given) | – | – | – | > 1000 | –
Cc1cc(S(=O)(=O)N[C@H](C)C2CCN(C)CC2)c(C)cc1NC(=O)c1ccccc1C | – | 1 | 20.1 | – | –
Cc1ccccc1C(=O)Nc1ccc(S(=O)(=O)N[C@H](C)C2CCN(C)CC2)c2ccccc12 | < 3 | 1.3 | 3.4 | – | –
Cc1cc(S(=O)(=O)N[C@H](C)C2CCN(C)CC2)ccc1NC(=O)c1cc(Cl)ccc1C | – | 1.6 | 31.4 | 1.7 | 19.6
Cc1cc(S(=O)(=O)N[C@H](C2CC2)C2CCN(C)CC2)ccc1NC(=O)c1ccccc1C | – | 0.3 | 3.6 | – | –
Cc1cc(S(=O)(=O)NCC2CCN(C)CC2)ccc1NC(=O)c1ccccc1C | – | – | – | 251 | –
